According to a melting point compilation (Tetko et al.):

SMILES | melting point [°C]
CC(C)(C)P(=O)(O)O | 188 to 192
C[C@@H]1C(=O)[C@H](C)[C@@H](c2ccc(Cl)cc2)O[C@H]1c1ccc(Cl)cc1 | 190
Clc1cccc2ccccc12 | -2.5
O=C(O)c1cccnc1Oc1ccccc1 | 181
O=C(C(C(=O)N1CCCCC1)c1ccccc1)N1CCCCC1 | 144
Nc1ccc([N+](=O)[O-])c(F)c1 | 160
COC(=O)c1ccc([N+](=O)[O-])cc1C(=O)OC | 67
O=C(CBr)c1cccc(C(=O)CBr)c1 | 91
Cc1cc(C)n(-c2ccc(C(=O)O)cc2)n1 | 163
Cc1ccc(S(=O)(=O)N(C)N=O)cc1 | 60
CCC1OC(=O)C(C)C(OC2OC(C)CC(N(C)C)C2O)C(C)CC(C)C(=O)C=CC1(C)O (centres undefined) | 196
COC(=O)C1CCCc2c1[nH]c1cc(OC)ccc21 (centres undefined) | 92
CN1CCN(Cc2ccccc2CO)CC1 | 62 to 64
COC1=CC=C2C3Cc4ccc(OC)c5c4C2(CCN3C)C1O5 (centres undefined) | 193
OCc1ccc(N2CCCCC2)nc1 | 70 to 71
Cn1nc(-c2cccs2)cc1C(=O)O | 173 to 174
CC(C)(O)C#CC#CC(C)(C)O | 132 to 134
C1CN2CCC1CC2 | 158
CCC1CC(NC(=O)CNC(=O)CBr)C(C)(C)N1O (centres undefined) | 145 to 147
COc1ccccc1-n1[nH]cc2c(=O)ncnc1-2 | 271

SMILES | melting point [°C]
COP(=S)(OC)Oc1ccc(C#N)cc1 | 14.5
O=[N+]([O-])c1ccccc1CCO | 2
O=C(O)CCC(=O)c1ccc2c(c1)OCCO2 | 138 to 140
C/C(=N\CCN)c1c(O)c2ccccc2n(-c2ccccc2)c1=O | > 300
CC(COc1ccc(C(C)(C)C)cc1)OS(=O)OCCCl (centres undefined) | -31.7
Cc1nc([N+](=O)[O-])cn1-c1ccc([N+](=O)[O-])cc1 | 186
Clc1ccc(C(Cl)(Cl)Cl)cc1Cl | 25.8
COC(=O)c1sc(SC)c(C#N)c1N | 207
CC(=O)OOC(=O)c1ccccc1 | 37
Cc1ccc(N2CSc3nnc(-c4ccc([N+](=O)[O-])cc4)n3C2)cc1 | 226
CC(=O)n1cc(C)c2ccccc21 | 65
CCOC(=O)c1sc(C)nc1-c1ccccc1 | 44 to 47
Cc1ccc(N=C2NCCN2)c(Cl)c1 | 149
O=C(O)C(F)(F)C(F)(F)C(F)(F)C(F)(F)C(F)(F)F | 10
C[Si](C)(C)N=C=S | -32.8
Cc1ccc(S(=O)(=O)NC(=O)NC2C3CCC(C)(C2O)C3(C)C)cc1 (centres undefined) | 192
NS(=O)(=O)c1cc2c(s1)S(=O)(=O)CCC2=O | 242
CC1C(=O)C23C4CC5C(C)(C)CCC(=O)C5(C)C2C(=O)CC1C3OC(C)(C)O4 (centres undefined) | 197
Cc1nn(-c2ccccc2)c2oc3sccc3c(=S)c12 | 194 to 196

The remaining lines, values ahead:

melting point [°C] | SMILES
179 to 180 | CC12CCC3C(CCC4CC(OC=O)CCC43C)C1CC=C2C#Cc1ccccc1 (centres undefined)
250 to 253 | N=C(N)N[C@@H](Cc1ccccc1)C(=O)O
121 to 126 | O=C(O)c1ccc2c(c1)OCCOCCOCCOCCOCCO2
93 | COC(=O)c1cc(C)n(C)n1
110 to 113 | Cc1nc(CC(=O)O)c(C)s1
27 to 28 | O=C=Nc1ccc(F)c([N+](=O)[O-])c1
118 to 120 | COC1=C(OC)/C(=C/C2CCC=CC23OC(=O)C(OC)=C3OC)OC1=O (centres undefined)
139 | CCn1nc(C)cc1C(=O)O
71 | O=[N+]([O-])c1ccc(Cc2ccncc2)cc1
57 to 59 | NC(=O)C(F)(F)C(F)F
198 | CCOC(=O)C1=C(N)n2nc(C(F)(F)F)nc2NC1c1ccc(Cl)cc1 (centres undefined)
199 | O=S(=O)(O)c1ccc2ccc(S(=O)(=O)O)cc2c1
211 to 213 | Cn1cc(Br)c(C(=O)O)n1
277 | C=C1C(=O)C23C(OC(C)=O)CC4C(C)(C)CCC(OC(C)=O)C4(C)C2C(OC(C)=O)CC1C3OC(C)=O (centres undefined)
59 | O=[N+]([O-])c1ccccc1-n1cccc1
82 to 84 | C1CCC2(CC1)OCC(C1OC3(CCCCC3)OC1C1COC3(CCCCC3)O1)O2 (centres undefined)
44 | CCOC(=O)c1ccc(O)c(OC)c1
-8 | C1CCCCCC1
121 to 124 | COC(=O)c1noc(C)c1C(C)=NO
179 to 180 | CCOC(=O)C1=NN(c2ccccc2)C(=O)C1=CC1C(=O)N(c2ccccc2)N=C1C(=O)OCC (centres undefined)
49 | CC(=O)CC(=O)CC(C)=O
-44 | COCCOCCOCCO
128 | O=C(O)CNc1ccccc1
189 to 190 | Cc1cc(C)c(C2(C)CC(C(=NO)c3cc4ccccc4o3)C2)c(C)c1 (centres undefined)
110 | CCOC(=O)c1cn(C(C)=O)nc1N
121 | Cc1cccc2c(=O)c(=O)c12
286 to 293 | O=C(O)c1ccc(CN2CCCCC2)cc1
-28 | Cc1cccc(Cc2ccccc2)c1

melting point [°C] | SMILES
36 | COc1ccc(C(F)(F)F)cc1CBr
63 | O=C(O)Cc1cccs1
75 to 78 | Cc1onc(-c2c(Cl)cccc2Cl)c1CC#N
-104 | CCNC(C)CC (centres undefined)
56 | CC1CCC2(O)C(C)(C)C3CCC2(C)C1C3 (centres undefined)
81 to 82 | COC(=O)c1cc2occc2n1C
136 | CC(=O)Nc1ccc(C(F)(F)F)cc1Cl
142 to 145 | CCC1CC(NC(C)=O)CC(C)(C)N1O (centres undefined)
64 | CCOC(=O)Cc1ccc([N+](=O)[O-])cc1
254 | c1ccc2c(c1)C1c3ccccc3C2c2ccccc21
-113 | C#CC(=C)C
67 to 70 | CCOc1nc2ccccc2c(=O)n1Cc1cccnc1
144 to 146 | COCC(CCC(=O)OC)N1CC=CC1 (centres undefined)
184 | O=[N+]([O-])c1ccc(C2Nn3c(COc4ccccc4)nnc3S2)cc1 (centres undefined)
169 | ON=Cc1ccc2ccccc2c1
40 | Cc1ccc(CC=O)cc1
99 to 100 | Nc1ccc(CN2CCOCC2)cc1
295 | Cc1cc(C)n2nc(N)c(/N=N/c3cc(Cl)c(Cl)cc3Cl)c2n1
61 | CCCCC(O)C(=O)O (centres undefined)
190 to 192 | Nc1ccc(Cl)cc1C(=O)c1cccc(O)c1
33 | CON(C(=O)c1cc(C)oc1C)C1CCCCC1
90 | CC(=O)c1ccc[nH]1
95 | O=C(NCO)c1ccccc1
173 | CC(=O)N1N=C(c2ccc3ccccc3c2)CC1c1ccccc1Cl (centres undefined)
177 | O=C(O)C=CC(=O)Nc1ccccc1
136 | O=C(O)C=Cc1cccc(C(F)(F)F)c1
107 to 108 | CC(C)(C)OC(=O)N1CCN(Cc2cccc(N)c2)CC1
